Measured values: patent US20240026086A1, “POLYPHENOL DERIVATIVE AND POLYMER MATERIAL” (TOPPAN INC., priority 2020, published 2024)

Tested on: E. coli
Experiment: Antibacterial test of coating films on glass substrate in accordance with JIS 22801
Assay type: cell-based
Conditions: against E. coli
Experimental: The polyphenol derivatives (polyphenol derivatives 1 to 4) in Examples 1 to 4 and the tannic acid in Comparative Example 1 were each applied by the above method onto a 5 cm×5 cm glass substrate at a weight of 1.2 mg/cm 2 to yield a coating film. The glass substrate samples in Examples and Comparative Example each having the coating film formed by the above method were subjected to antibacterial test by a method in accordance with JIS 22801, and antibacterial activity values (against E. coli) were determined.

O=C(OC[C@H]1O[C@@H](OC(=O)c2cc(O)c(O)c(OC(=O)c3cc(O)c(O)c(O)c3)c2)[C@H](OC(=O)c2cc(O)c(O)c(OC(=O)c3cc(O)c(O)c(O)c3)c2)[C@@H](OC(=O)c2cc(O)c(O)c(OC(=O)c3cc(O)c(O)c(O)c3)c2)[C@@H]1OC(=O)c1cc(O)c(O)c(OC(=O)c2cc(O)c(O)c(O)c2)c1)c1cc(O)c(O)c(OC(=O)c2cc(O)c(O)c(O)c2)c1 [compound 1, tannic acid]
Antibacterial test (antibacterial activity value) (coating film 1.2 mg/cm 2 on 5 cm×5 cm glass substrate): >5.8
antibacterial activity (in words) (coating film): antibacterial activity was sufficiently achieved
